Experimental data taken from PubChem BioAssay AID330 (DTP/NCI, 2004).
“And” between values parts separate entries of the source, which are not always exact repeats. Equal values may be shown once. Toxic doses and inconclusive results are not listed.

Test system: P388 leukemia ip, CD2F1 mice, survival T/C
Test: NCI In Vivo Anticancer Drug Screen. Data for tumor model P388 Leukemia (intraperitoneal) in CD2F1 (CDF1) mice
Conditions: endpoint: median survival time, higher = longer survival
Procedure, shortened: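 Mice carrying the transplanted tumor received test compound or vehicle. Survival was recorded in each group, and the value is the treated-group measurement divided by that of the vehicle-treated control group.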

[1] = dose: 50.0 mg/kg/injection, schedule: Q01DX009 (ip), vehicle: Klucel (hydroxypropylcellulose) (HPC)
[2] = dose: 100.0 mg/kg/injection, schedule: Q01DX009 (ip), vehicle: Klucel (hydroxypropylcellulose) (HPC)
[3] = dose: 200.0 mg/kg/injection, schedule: Q01DX009 (ip), vehicle: Klucel (hydroxypropylcellulose) (HPC)
[4] = dose: 6.25 mg/kg/injection, schedule: Q01DX005 (ip), vehicle: Klucel (hydroxypropylcellulose) (HPC)
[5] = dose: 12.5 mg/kg/injection, schedule: Q01DX005 (ip), vehicle: Klucel (hydroxypropylcellulose) (HPC)
[6] = dose: 25.0 mg/kg/injection, schedule: Q01DX005 (ip), vehicle: Klucel (hydroxypropylcellulose) (HPC)
[7] = dose: 50.0 mg/kg/injection, schedule: Q01DX005 (ip), vehicle: saline with Tween-80
[8] = dose: 100.0 mg/kg/injection, schedule: Q01DX005 (ip), vehicle: saline with Tween-80
[9] = dose: 200.0 mg/kg/injection, schedule: Q01DX005 (ip), vehicle: saline with Tween-80
[10] = dose: 50.0 mg/kg/injection, schedule: Q01DX005 (ip), vehicle: Klucel (hydroxypropylcellulose) (HPC)
[11] = dose: 100.0 mg/kg/injection, schedule: Q01DX005 (ip), vehicle: Klucel (hydroxypropylcellulose) (HPC)
[12] = dose: 200.0 mg/kg/injection, schedule: Q01DX005 (ip), vehicle: Klucel (hydroxypropylcellulose) (HPC)
[13] = dose: 60.0 mg/kg/injection, schedule: Q01DX005 (ip), vehicle: saline with Tween-80
[14] = dose: 120.0 mg/kg/injection, schedule: Q01DX005 (ip), vehicle: saline with Tween-80
[15] = dose: 240.0 mg/kg/injection, schedule: Q01DX005 (ip), vehicle: saline with Tween-80
[16] = dose: 25.0 mg/kg/injection, schedule: Q01DX009 (ip), vehicle: Klucel (hydroxypropylcellulose) (HPC)
[17] = dose: 12.5 mg/kg/injection, schedule: Q01DX009 (ip), vehicle: saline with Tween-80
[18] = dose: 100.0 mg/kg/injection, schedule: Q01DX009 (ip), vehicle: saline with Tween-80
[19] = dose: 50.0 mg/kg/injection, schedule: Q01DX009 (ip), vehicle: saline with Tween-80
[20] = dose: 200.0 mg/kg/injection, schedule: Q01DX009 (ip), vehicle: saline with Tween-80
[21] = dose: 400.0 mg/kg/injection, schedule: Q01DX009 (ip), vehicle: saline with Tween-80

Clc1ccccc1CN1COc2c(cc(Cl)c3cccnc23)C1
T/C (dose: 100.0 mg/kg/injection, schedule: Q04DX003 (ip), vehicle: Klucel (hydroxypropylcellulose) (HPC)): 95 % of control
T/C (dose: 200.0 mg/kg/injection, schedule: Q04DX003 (ip), vehicle: Klucel (hydroxypropylcellulose) (HPC)): 95 % of control
T/C (dose: 400.0 mg/kg/injection, schedule: Q04DX003 (ip), vehicle: Klucel (hydroxypropylcellulose) (HPC)): 95 % of control

CC1CC2C(=S)NC(=O)C(c3ccccc3)=C2O1 (stereo not drawn)
T/C [1]: 107 % of control
T/C [2]: 103 % of control
T/C [3]: 100 % of control

Cc1cccc(/C=N/Nc2ccc3ccccc3n2)n1
T/C [4]: 102 % of control
T/C [5]: 95 % of control
T/C [6]: 96 % of control

O=[N+]([O-])c1ccc(/C=C/S(=O)(=O)/C=C\c2ccccc2)cc1
T/C [7]: 101 % of control
T/C [8]: 97 % of control
T/C [9]: 88 % of control

O=C1c2cccc(O)c2C(=O)c2c1cc(CO)c(-c1c(CO)cc3c(c1O)C(=O)c1c(O)cccc1C3=O)c2O
T/C (dose: 3.75 mg/kg/injection, schedule: Q01DX005 (ip), vehicle: Klucel (hydroxypropylcellulose) (HPC)): 98 % of control
T/C (dose: 7.5 mg/kg/injection, schedule: Q01DX005 (ip), vehicle: Klucel (hydroxypropylcellulose) (HPC)): 100 % of control
T/C (dose: 15.0 mg/kg/injection, schedule: Q01DX005 (ip), vehicle: Klucel (hydroxypropylcellulose) (HPC)): 99 % of control

CC(=O)NS(=O)(=O)c1ccc(NN=Nc2ccccc2Cl)cc1
T/C [10]: 95 % of control
T/C [11]: 94 % of control
T/C [12]: 97 % of control

CCOc1cc2c(cc1C(C)c1ccccc1OC)OCO2 (stereo not drawn)
T/C [7]: 100 % of control
T/C [8]: 98 % of control
T/C [9]: 96 % of control

O=c1c2ccccc2nc2n1CCC/C2=C\c1ccc(Cl)cc1
T/C (dose: 92.5 mg/kg/injection, schedule: Q04DX002 (ip), vehicle: Klucel (hydroxypropylcellulose) (HPC)): 97 % of control
T/C (dose: 185.0 mg/kg/injection, schedule: Q04DX002 (ip), vehicle: Klucel (hydroxypropylcellulose) (HPC)): 105 % of control
T/C (dose: 370.0 mg/kg/injection, schedule: Q04DX002 (ip), vehicle: Klucel (hydroxypropylcellulose) (HPC)): 97 % of control

COc1nc2c(ccn2C2OCC(OC(C)=O)C(OC(C)=O)C2OC(C)=O)c(=O)n1C (stereo not drawn)
T/C [13]: 100 % of control
T/C [14]: 97 % of control
T/C [15]: 100 % of control

CCOC(CN(C)C)C(Cl)(Cl)Cl (stereo not drawn)
T/C [16]: 103 % of control
T/C [1]: 103 % of control
T/C [2]: 88 % of control
T/C [3]: 108 % of control

NC1=NC(=O)C(c2ccccc2)S1 (stereo not drawn)
T/C (dose: 12.5 mg/kg/injection, schedule: Q01DX009 (ip), vehicle: Klucel (hydroxypropylcellulose) (HPC)): 103 % of control
T/C [16]: 99 % of control
T/C [1]: 113 % of control
T/C [2]: 105 % of control

Cc1cc(NC(=O)NCc2ccc(N3C(N)=NC(N)=NC3(C)C)cc2)ccc1S(=O)(=O)F
T/C [17]: 119 % of control
T/C (dose: 25.0 mg/kg/injection, schedule: Q04DX003 (ip), vehicle: saline with Tween-80): 105 % of control
T/C (dose: 25.0 mg/kg/injection, schedule: Q04DX003 (ip), vehicle: saline): 109 % of control
T/C (dose: 50.0 mg/kg/injection, schedule: Q04DX003 (ip), vehicle: saline with Tween-80): 119 % of control
T/C [18]: 176 % of control
T/C (dose: 100.0 mg/kg/injection, schedule: Q04DX003 (ip), vehicle: saline with Tween-80): 153 % of control
T/C (dose: 200.0 mg/kg/injection, schedule: Q04DX003 (ip), vehicle: saline with Tween-80): 164 % of control
T/C (dose: 200.0 mg/kg/injection, schedule: Q04DX003 (ip), vehicle: saline): 154 % of control
T/C (dose: 400.0 mg/kg/injection, schedule: Q04DX003 (ip), vehicle: saline): 90 % of control

C[C@@H]1CCC2=C(CO)C(=O)O[C@@]23CC(C)(C)[C@H]2O[C@]123
T/C (dose: 2.25 mg/kg/injection, schedule: Q01DX005 (ip), vehicle: Klucel (hydroxypropylcellulose) (HPC)): 98 % of control
T/C (dose: 4.5 mg/kg/injection, schedule: Q01DX005 (ip), vehicle: Klucel (hydroxypropylcellulose) (HPC)): 97 % of control
T/C (dose: 9.0 mg/kg/injection, schedule: Q01DX005 (ip), vehicle: Klucel (hydroxypropylcellulose) (HPC)): 98 % of control
T/C (dose: 18.0 mg/kg/injection, schedule: Q01DX005 (ip), vehicle: Klucel (hydroxypropylcellulose) (HPC)): 100 % of control
T/C (dose: 36.0 mg/kg/injection, schedule: Q01DX005 (ip), vehicle: Klucel (hydroxypropylcellulose) (HPC)): 103 % of control

COc1ccc2c(N/N=C/c3ccc4c(c3)OCO4)cc(C)nc2c1
T/C (dose: 1.5 mg/kg/injection, schedule: Q01DX005 (ip), vehicle: Klucel (hydroxypropylcellulose) (HPC)): 95 % of control
T/C (dose: 3.0 mg/kg/injection, schedule: Q01DX005 (ip), vehicle: Klucel (hydroxypropylcellulose) (HPC)): 93 % of control
T/C (dose: 6.0 mg/kg/injection, schedule: Q01DX005 (ip), vehicle: Klucel (hydroxypropylcellulose) (HPC)): 95 % of control
T/C [4]: 88 % of control
T/C [5]: 107 % of control
T/C [6]: 88 % of control

CCC(=O)Nc1nnc(SCCCCCCCCCCSc2nnc(NC(=O)CC)s2)s1
T/C [10]: 89 % of control
T/C [11]: 91 % of control
T/C [12]: 87 % of control

Cc1nc(Nc2ccc(F)cc2)c2c(C)c(Cc3ccccc3)[nH]c2n1
T/C [10]: 88 % of control
T/C [11]: 89 % of control
T/C [12]: 94 % of control

COc1ccc(C(=O)CCc2cccc(NC(=O)CCl)c2)cc1
T/C [13]: 91 % of control
T/C [14]: 100 % of control
T/C [15]: 102 % of control

COc1ccc(CCNC2=CC(=O)CCC2)cc1OC
T/C [7]: 101 % of control
T/C [8]: 99 % of control
T/C [9]: 101 % of control

Cc1ccccc1C1(Br)C(=O)c2ccccc2C1=O
T/C (dose: 100.0 mg/kg/injection, schedule: Q04DX002 (ip), vehicle: saline): 101 % of control
T/C (dose: 200.0 mg/kg/injection, schedule: Q04DX002 (ip), vehicle: saline): 101 % of control
T/C (dose: 400.0 mg/kg/injection, schedule: Q04DX002 (ip), vehicle: saline): 102 % of control

COC1(c2ccccc2)N=C(N)NC1(OC)c1ccccc1 (stereo not drawn)
T/C (dose: 6.25 mg/kg/injection, schedule: Q04DX002 (ip), vehicle: saline): 103 % of control
T/C (dose: 12.5 mg/kg/injection, schedule: Q04DX002 (ip), vehicle: saline): 102 % of control
T/C (dose: 25.0 mg/kg/injection, schedule: Q04DX002 (ip), vehicle: saline): 98 % of control

Cc1cc(C(=O)O)c(C)c([N+](=O)[O-])c1
T/C [19]: 88 % of control
T/C [18]: 104 % of control
T/C [20]: 98 % of control
T/C [21]: 100 % of control

N=c1c2ncn(C3OC(CO)C(O)C3O)c2ncn1O (stereo not drawn)
T/C (dose: 6.25 mg/kg/injection, schedule: Q01DX005 (ip), vehicle: saline): 97 % of control
T/C (dose: 12.5 mg/kg/injection, schedule: Q01DX005 (ip), vehicle: saline): 101 % of control
T/C (dose: 25.0 mg/kg/injection, schedule: Q01DX005 (ip), vehicle: saline): 101 % of control and 112 % of control
T/C [7]: 105 % of control
T/C (dose: 50.0 mg/kg/injection, schedule: Q01DX005 (ip), vehicle: saline): 112 % of control and 94 % of control
T/C [8]: 100 % of control
T/C [9]: 108 % of control

COC(=O)c1nc(=S)[nH]c(C(=O)OC)c1C(=O)/C=C/c1ccccc1
T/C (dose: 60.0 mg/kg/injection, schedule: Q01DX005 (ip), vehicle: saline + Tween-80 + alcohol): 104 % of control
T/C (dose: 120.0 mg/kg/injection, schedule: Q01DX005 (ip), vehicle: saline + Tween-80 + alcohol): 100 % of control

CCN(CC)CCOc1c(Cl)cc(Cl)cc1Cl
T/C [7]: 93 % of control
T/C [8]: 111 % of control
T/C [9]: 111 % of control

Cc1ccc(NC(=S)NCCc2ccccn2)cc1C
T/C [17]: 94 % of control
T/C (dose: 25.0 mg/kg/injection, schedule: Q01DX009 (ip), vehicle: saline with Tween-80): 94 % of control
T/C [19]: 93 % of control
T/C [18]: 99 % of control and 92 % of control
T/C [20]: 100 % of control
T/C [21]: 105 % of control

CCCCC(CC)COC1CCS(=O)(=O)C1 (stereo not drawn)
T/C [19]: 100 % of control
T/C [18]: 101 % of control
T/C [20]: 95 % of control
